Measured values taken from patent US8471063B2, “Michael systems as transglutaminase inhibitors” (Zedira GmbH, priority 2006, dated 2013).
Where a SMILES comes first, the peptide text is derived from it. [ ]: non-standard residue; d: D form. The star is where a group is joined. Nle(5E-ene,6-CO2Et) = CCOC(=O)/C=C/CC[C@H](N)C(=O)O; Cbz = O=C(OCc1ccccc1)*

Biological target: T1, recombinant human tissue transglutaminase (His6-rh-TG2) (Homo sapiens, UniProt P21980)
T1 sequence (P21980 1-687): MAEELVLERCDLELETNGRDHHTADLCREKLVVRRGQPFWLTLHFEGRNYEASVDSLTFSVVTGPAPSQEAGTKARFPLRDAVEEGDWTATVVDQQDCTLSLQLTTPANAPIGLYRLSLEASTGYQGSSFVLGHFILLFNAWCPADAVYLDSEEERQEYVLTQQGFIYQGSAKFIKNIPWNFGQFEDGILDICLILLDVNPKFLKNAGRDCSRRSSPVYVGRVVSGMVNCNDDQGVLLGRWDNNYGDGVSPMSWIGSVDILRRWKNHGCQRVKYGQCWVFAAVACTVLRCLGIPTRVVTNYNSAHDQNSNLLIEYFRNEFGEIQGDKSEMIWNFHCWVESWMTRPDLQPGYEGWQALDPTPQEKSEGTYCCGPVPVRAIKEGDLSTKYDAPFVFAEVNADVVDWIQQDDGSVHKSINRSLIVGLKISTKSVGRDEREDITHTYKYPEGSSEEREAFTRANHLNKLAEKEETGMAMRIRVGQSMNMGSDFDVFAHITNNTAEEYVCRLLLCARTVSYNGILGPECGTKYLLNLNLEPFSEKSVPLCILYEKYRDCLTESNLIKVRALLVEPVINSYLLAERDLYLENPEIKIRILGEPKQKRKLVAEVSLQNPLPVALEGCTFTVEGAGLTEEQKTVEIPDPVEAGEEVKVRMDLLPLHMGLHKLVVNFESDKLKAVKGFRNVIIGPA
Assay: Inactivation of human tissue transglutaminase, fluorescence assay, IC50
Assay type: biochemical
Details: 5 min preincubation, 37° C.
Experimental: 250 μg of lyophilized his-tagged recombinant human tissue transglutaminase (His6-rh-TG2) are reconstituted by the addition of 150 μl of water (resulting buffer 50 mM of NaH2PO4, 150 mM of NaCl, pH=8).
A 10 mM inhibitor stock solution in DMSO is prepared and diluted with buffer (50 mM of Tris-HCl, 10 mM of CaCl2, 5 mM of DTT, pH=7.5, respectively) to the 20-fold of the concentration desired for the inhibition mixture (at least 1/50 dilution resulting in 2% DMSO concentration).
900 μl of an assay solution composed of 55.56 mM of Tris, 11.11 mM of CaCl2, 0.11% PEG8000, 5.56 mM of DTT, 5.56 mM of glycine methyl ester and 50 μM of Abz-APE(CAD-DNP)QEA-OH, (patent number:), pH=7.5 are placed in a cuvette and brought to a temperature of 37° C. in the measuring cell of a spectrophotometer. 50 μl of the respective inhibitor solution are added to said solution (resulting in a concentration of less than 0.2% of DMSO in the mixture).
7 μl of the transglutaminase solution reconstituted above are diluted with 51 μl of buffer (50 mM of Tris, 100 mM of NaCl, 5 mM of DTT, pH=7.5). 50 μl of said enzyme solution (10 μg His6-rhTG2) are added to the assay solution containing the respective inhibitor concentration. The mixture is incubated for 5 min at 37° C. before the measurement is performed. λexc=313 nm and λem=418 nm, 15 min)
The resulting enzyme activity was measured by analyzing the slope of the straight line obtained by the increase in fluorescence.
DMSO is used instead of inhibitor stock solution in order to determine the non-inhibited enzyme activity. IC50 values are determined by plotting the resulting enzyme activity against the logarithm of the inhibitor concentration. IC50 is defined as the concentration of an inhibitor at which enzyme activity is reduced to 50% after 5 min of preincubation.

IC50 (Table 2) | IC50 (Table 1) | Structure (SMILES)
43000 nM |  | COC(=O)C(CC(C)C)NC(=O)C1CCCN1C(=O)C(CCC(N)=O)NC(=O)C(CCC=CC#N)NC(=O)OCc1ccccc1 [Compound 3.2.11, N^α-benzyloxycarbonyl)-[(Z)-(L)-2-amino-6-cyano-hex-5-ene-dicarboxylic acid]-L-glutaminyl-L-prolinyl-L-leucine methyl ester]
 | 18000 nM | CCOC(=O)C=CC(=O)CC[C@H](NC(=O)OCc1ccccc1)C(=O)N[C@H](C(=O)N1CCC[C@H]1C(=O)N[C@@H](CC(C)C)C(=O)OC)C(C)C [Compound 9, N^α-benzyloxycarbonyl-{[L-7-amino-4-oxo-oct-2-ene-dicarboxylic acid]-1-ethanoyl}-L-valinyl-L-prolinyl-leucine methyl ester]
 | 330 nM | COC(=O)/C=C/CC[C@H](NC(C)=O)C(=O)N[C@@H](CCC(N)=O)C(=O)N[C@@H](CCC(=O)O)C(=O)N[C@@H](C)C(=O)OC [Compound 10, N^α-Acetyl-{[(E)-(L)-6-amino-hept-2-ene-dicarboxylic acid]-1-methanoyl}-L-glutaminyl-L-glutamyl-L-alanine methyl ester]
 | 2100 nM | COC(=O)/C=C/CC[C@H](NC(C)=O)C(=O)N[C@@H](CCC(N)=O)C(=O)N[C@@H](CCC(=O)O)C(=O)OC [Compound 11, N^α-acetyl-{[(E)-(L)-6-amino-hept-2-ene-dicarboxylic acid]-1-methanoyl}-L-glutaminyl-L-glutamyl methyl ester]
 | 1100 nM | COC(=O)/C=C/CC[C@H](NC(C)=O)C(=O)N[C@@H](Cc1ccc(F)cc1)C(=O)N1CCC[C@H]1C(=O)N[C@@H](CC(C)C)C(=O)OC [Compound 14, N^α-acetyl-{[(E)-(L)-6-amino-hept-2-ene-dicarboxylic acid]-1-methanoyl}-L-(p-fluoro)-phenylalaninyl-L-prolinyl-L-leucine methyl ester]
 | 880 nM | COC(=O)/C=C/CC[C@H](NC(=O)OCc1ccccc1)C(=O)N[C@@H](Cc1ccc(F)cc1)C(=O)N1CCC[C@H]1C(=O)N[C@@H](CC(C)C)C(=O)OC [Compound 15, N^α-benzyloxycarbonyl-{[(E)-(L)-6-amino-hept-2-ene-dicarboxylic acid]-1-methanoyl}-L-(p-fluoro)-phenylalaninyl-L-prolinyl-L-leucine methyl ester]
 | 70 nM | CCOC(=O)C=CC(=O)CC[C@H](NC(C)=O)C(=O)N[C@@H](CCC(N)=O)C(=O)N1CCC[C@H]1C(=O)N[C@@H](CC(C)C)C(=O)OC [Compound 22, N^α-acetyl-{[L-7-Amino-4-oxo-oct-2-ene-dicarboxylic acid]-1-ethanoyl}-L-glutaminyl-L-prolinyl-L-leucine methyl ester]

Structure (SMILES) | IC50 (Table 2) | IC50 (Table 1)
COC(=O)/C=C/CC[C@H](NC(=O)OCc1ccccc1)C(=O)N[C@@H](Cc1ccccc1)C(=O)N1CCC[C@H]1C(=O)N[C@@H](CC(C)C)C(=O)OC [Compound 13, N^α-benzyloxycarbonyl-{[(E)-(L)-6-amino-hept-2-enedicarboxylic acid]-1-methanoyl}-L-phenylalaninyl-L-prolinyl-L-leucine methyl ester] |  | 1500 nM
CCOC(=O)/C=C/CC[C@H](NC(=O)OCc1ccccc1)C(=O)N[C@@H](CCC(N)=O)C(=O)N1CCC[C@H]1C(=O)N[C@@H](Cc1ccc(O)cc1)C(=O)OC [Compound 19, N^α-benzyloxycarbonyl-{[(E)-(L)-6-amino-hept-2-ene-dicarboxylic acid]-1-ethanoyl}-L-glutaminyl-L-proline-L-tyrosine methyl ester] (Cbz-[Nle(5E-ene,6-CO2Et)]QPY-OMe) |  | 2400 nM
CCOC(=O)/C=C/CC[C@H](NC(=O)OCc1ccccc1)C(=O)N[C@@H](CCC(N)=O)C(=O)N1CCC[C@H]1C(=O)N[C@@H](CC(C)C)C(=O)OC [Compound 20, N^α-benzyloxycarbonyl-{[(E)-(L)-6-amino-hept-2-ene-dicarboxylic acid]-1-ethanoyl}-L-glutaminyl-L-prolinyl-L-leucine methyl ester] (Cbz-[Nle(5E-ene,6-CO2Et)]QPL-OMe) |  | 2000 nM
